Five compounds from US12157730B2, “Heteroaryl derivative, method for producing same, and pharmaceutical composition comprising same as effective component” (VORONOI INC., priority 2019, dated 2024) can be followed below.

SMILES strings stand for the structures.

Assay [1] has as its target T1, Ba/F3 cell EGFR L858R/T790M (Homo sapiens, UniProt P00533, L858R/T790M).
T1 construct: expressed in transfected cells; host or cells: Ba/F3
The experiment in a line: Ba/F3 cell proliferation suppression, EGFR L858R/T790M. The class given is cell-based. Particulars: 72 hours after treatment, CellTiter-Glo. An outline of the steps:
(§1)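 72 h compound exposure, 0.3 nM–50 um (12 points, 3:1 dilution in DMSO); viability by CellTiter-Glo luminescence. Ba/F3 medium: RPMI-1640, 10% FBS, 5 ng/ml IL-3, 1 ug/ml puromycin for transduced cells. GI50 vs control, n=3.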

Assay [2] concerns Ba/F3 cell EGFR Del19/T790M. The assay is described as follows: Ba/F3 cell proliferation suppression, EGFR Del19/T790M. Particulars: 72 hours after treatment, CellTiter-Glo. The assay is classed as cell-based. Summed up:
as §1
In general terms: ATP-based viability assays read luminescence as a measure of living cells.

The target in another assay is T2, Ba/F3 cell EGFR L858R (Homo sapiens, UniProt P00533, L858R).
T2 construct: expressed in transfected cells; host or cells: Ba/F3
The experiment in a line: Ba/F3 cell proliferation suppression, EGFR L858R. The class given is cell-based. Particulars: 72 hours after treatment, CellTiter-Glo. Summed up:
as §1

For assay [3], the target named is T3, Ba/F3 cell EGFR Exon20 ins NPH (Homo sapiens, UniProt P00533, INS773NPH).
T3 construct: expressed in transfected cells; host or cells: Ba/F3
The assay is described as follows: Ba/F3 cell proliferation suppression, EGFR Exon20 ins NPH. The class given is cell-based. To be noted: for GI50: 72 hours after treatment, CellTiter-Glo; for Ba/F3 (NPH) Activity: GI50 class, Ba/F3 cell line with NPH inserted at Exon20 of EGFR, 72 hours. An outline of the steps:
as §1

Assay [4] concerns the target T4, Ba/F3 cell EGFR Exon20 ins SVD (Homo sapiens, UniProt P00533, INS770SVD).
T4 construct: expressed in transfected cells; host or cells: Ba/F3
The experiment in a line: Ba/F3 cell proliferation suppression, EGFR Exon20 ins SVD. The class given is cell-based. Particulars: 72 hours after treatment, CellTiter-Glo. An outline of the steps: as §1

The target of assay [5] is T5, Ba/F3 cell EGFR Exon20 ins FQEA (Homo sapiens, UniProt P00533, INS763FQEA).
T5 construct: expressed in transfected cells; host or cells: Ba/F3
The assay is described as follows: Ba/F3 cell proliferation suppression, EGFR Exon20 ins FQEA. To be noted: 72 hours after treatment, CellTiter-Glo. The class given is cell-based. An outline of the steps: as §1

The test system of assay [6] is Ba/F3 cell EGFR Exon20 ins H. The experiment in a line: Ba/F3 cell proliferation suppression, EGFR Exon20 ins H. The class given is cell-based. Particulars: 72 hours after treatment, CellTiter-Glo. As to the method: (§2) The following experiment was carried out to evaluate the suppression activity of the compounds according to the present invention against proliferation of Ba/F3 and lung cancer cells which express EGFR mutations.
(§3) Of the cancer cell lines expressing the EGFR gene, A549 was cultured after adding 10% FBS (HyClone) to DMEM (Invitrogen), and RPMI-1640 (Invitrogen) with 10% FBS was used for the other cancer cells. For the Ba/F3 cells, RPMI-1640 with 10% FBS and 5 ng/ml IL-3 (R&D Systems) was used. The transduced Ba/F3 cells were cultured by adding 1 ug/ml puromycin (Invitrogen) to the same medium.
(§4) 24 hours before treatment with the compounds, 3000 to 5000 cells were distributed into each well of a white clear bottom 96 well plate (Corning). The compounds were diluted in dimethylsulfoxide (dilution ratio 3:1; 12 concentrations total) and injected 0.5 ul each for a final concentration of 0.3 nM to 50 um. As for measurement of live cells, 72 hours after treatment with the compounds, a CellTiter-Glo luminescent cell-viability reagent (Promega) was used to store the cells at room temperature for 10 minutes, followed by measurement of luminescence using a reader (SynergyNeo, Biotek). Each test was repeated three times.
(§5) The result was calculated as a cell growth ratio (%) compared to a control. The program GraphPad Prism version 5.0 was used to draw the graphs and calculate the GI50 values.

The target in assay [7] is T6, Ba/F3 cell EGFR Exon20 ins ASV (Homo sapiens, UniProt P00533, INS769ASV).
T6 construct: expressed in transfected cells; host or cells: Ba/F3
The experiment in a line: Ba/F3 cell proliferation suppression, EGFR Exon20 ins ASV. The class given is cell-based. To be noted: 72 hours after treatment, CellTiter-Glo. An outline of the steps:
as §1

Assay [8] has as its target T7, Ba/F3 cell HER2 Exon20 ins YVMA (Homo sapiens, UniProt P04626, INS775YVMA).
T7 construct: expressed in transfected cells; host or cells: Ba/F3
The assay is described as follows: Ba/F3 cell proliferation suppression, HER2 Exon20 ins YVMA. The class given is cell-based. To be noted: 72 hours after treatment, CellTiter-Glo. Summed up: as §1

In a further assay the test system is Ba/F3 cell naive. The experiment in a line: Ba/F3 cell proliferation suppression, naive. To be noted: Mus musculus, BaF3; 72 hours after treatment, CellTiter-Glo. The class given is cell-based. Summed up:
as §1

The subject of the next assay is PC9GR. The experiment in a line: Lung cancer cell proliferation suppression, PC9GR. The assay is classed as cell-based. Particulars: 72 hours after treatment, CellTiter-Glo. An outline of the steps:
as §1

A further assay concerns H1975. The assay is described as follows: Lung cancer cell proliferation suppression, H1975. The class given is cell-based. Particulars: Homo sapiens, NCI-H1975; 72 hours after treatment, CellTiter-Glo. An outline of the steps:
as §1

Another assay deals with PC9. The experiment in a line: Lung cancer cell proliferation suppression, PC9. The class given is cell-based. To be noted: Homo sapiens, PC-9; 72 hours after treatment, CellTiter-Glo. An outline of the steps: as §1
The nature of assay [9]: Cancer cell proliferation suppression, A549. Particulars: A459; 72 hours after treatment, CellTiter-Glo. The assay is classed as cell-based. As to the method: as §2, §3, §4, §5
Assay [10] concerns scanMAX kinase panel (EGFR mutant, ERBB2, ERBB4). The experiment in a line: DiscoverX (eurofin) KINOMEscan (scanMAX platform) kinase profiling. The class given is binding. To be noted: for suppression activity against the EGFR mutant and ERBB2 and ERBB4: KINOMEscan scanMAX kinase profiling. The text has this: It was confirmed that the above example compounds had high selectivity against EGFR series genes. Accordingly, these can be useful in the treating of cancers wherein this kinase is expressed. In particular, as they have substantially outstanding lung cancer cell line proliferation suppression, they can be useful in the treatment of lung cancer, breast cancer, and brain cancer.

T7 sequence (P04626 with tags, fused parts or gaps INS775YVMA): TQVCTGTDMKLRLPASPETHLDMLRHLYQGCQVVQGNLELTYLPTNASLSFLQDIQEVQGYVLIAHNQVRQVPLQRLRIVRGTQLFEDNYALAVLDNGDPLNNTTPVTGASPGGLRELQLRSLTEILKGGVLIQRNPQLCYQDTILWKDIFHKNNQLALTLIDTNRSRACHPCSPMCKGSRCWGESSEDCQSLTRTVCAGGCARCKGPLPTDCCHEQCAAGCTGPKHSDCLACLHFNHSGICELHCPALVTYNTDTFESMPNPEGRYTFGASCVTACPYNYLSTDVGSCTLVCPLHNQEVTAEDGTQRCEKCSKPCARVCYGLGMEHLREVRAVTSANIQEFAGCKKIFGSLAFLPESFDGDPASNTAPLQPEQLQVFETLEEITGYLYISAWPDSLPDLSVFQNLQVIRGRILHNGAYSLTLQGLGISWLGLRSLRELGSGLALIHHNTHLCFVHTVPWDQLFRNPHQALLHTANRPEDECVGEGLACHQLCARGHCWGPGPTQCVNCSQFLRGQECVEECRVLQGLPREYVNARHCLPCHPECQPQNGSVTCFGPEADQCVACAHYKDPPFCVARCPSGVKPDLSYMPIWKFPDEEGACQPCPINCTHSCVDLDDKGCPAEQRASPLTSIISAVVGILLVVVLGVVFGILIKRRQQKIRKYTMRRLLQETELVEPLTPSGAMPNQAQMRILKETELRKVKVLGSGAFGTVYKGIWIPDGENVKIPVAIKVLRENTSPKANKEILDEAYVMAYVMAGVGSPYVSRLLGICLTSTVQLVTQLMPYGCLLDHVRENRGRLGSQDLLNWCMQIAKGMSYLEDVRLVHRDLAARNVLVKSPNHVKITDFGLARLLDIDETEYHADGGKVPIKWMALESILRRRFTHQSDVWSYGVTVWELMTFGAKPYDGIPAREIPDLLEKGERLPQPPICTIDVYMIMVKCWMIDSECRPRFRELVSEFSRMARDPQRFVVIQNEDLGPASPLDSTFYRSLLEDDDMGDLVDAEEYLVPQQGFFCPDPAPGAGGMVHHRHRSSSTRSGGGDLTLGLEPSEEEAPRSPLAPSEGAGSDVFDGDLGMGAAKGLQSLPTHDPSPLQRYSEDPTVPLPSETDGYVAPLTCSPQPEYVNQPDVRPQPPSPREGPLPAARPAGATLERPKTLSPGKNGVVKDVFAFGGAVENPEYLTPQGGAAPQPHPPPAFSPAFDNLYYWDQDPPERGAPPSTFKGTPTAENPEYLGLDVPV

The GI50 is the concentration giving 50% growth inhibition. As for `C=CC(=O)Nc1cc(Nc2cc(N3OCC[C@@H]3c3ccccc3)ncn2)c(OC)cc1N(C)CCN(C)C` [Example 4], the 50% growth inhibitory concentration (GI50) (in [1]; in [2]; at Ba/F3 cell EGFR L858R; in [3]; in [4]; in assay [5]) was less than 0.05 µM in each case. The GI50 in assay [6] was less than 0.05 µM; in assay [7] it was less than 0.05 µM; in assay [8] it was less than 0.05 µM; in the assay with Ba/F3 cell naive it was not below 5 µM; in the assay on PC9GR it was 20 nM; with H1975, 28 nM. The results for the GI50 (in the assay on PC9; in [9]) were 1 nM and more than 15000 nM, respectively. Moreover, the “Ba/F3 (NPH) Activity” value in [3] is listed as “A (GI50 < 50 nM)”. For the same compound, the “% inhibition of scanMAX Kinase profiling” value was determined as 100% in assay [10] (EGFR(E746-A750del)); 100% in [10] (EGFR(G719C)); 100% in [10] (EGFR(G719S)); 97% in assay [10] (EGFR(L747-E749del, A750P)); 100% in assay [10] (EGFR(L747-T751del.Sins)); 100% in assay [10] (EGFR(L858R)). Besides, the “% inhibition of scanMAX Kinase profiling” value in assay [10] (EGFR(L858R.T790M)) came to 96%; in [10] (EGFR(L861q)) it was 100%; in assay [10] (EGFR(S752-I759del)), 100%; in assay [10] (EGFR(T790M)) it was 99%; in assay [10] (ERBB2), 100%; in assay [10] (ERBB4) it was 100%. Also, the “suppression activity against the EGFR mutant and ERBB2 and ERBB4” value (“suppression activity” for short) in assay [10] is reported as “high suppression activity”.
In the case of `C=CC(=O)Nc1cc(Nc2cc(N3OCC[C@@H]3c3ccccc3)ncn2)c(OC)cc1N1CC[C@@H](N(C)C)C1` [Example 13], the GI50 (in [1]; in assay [2]; on Ba/F3 cell EGFR L858R; in assay [3]; in assay [4]; in [5]) was less than 0.05 µM throughout. The GI50 is less than 0.05 µM in assay [6]; less than 0.05 µM in assay [7]; less than 0.05 µM in assay [8]; not below 5 µM with Ba/F3 cell naive; 64 nM with PC9GR; 63 nM in the assay with H1975. Further, the values for the GI50 (in the assay on PC9; in assay [9]) were 12 nM and more than 15000 nM, respectively. For the same compound, in [3], the “Ba/F3 (NPH) Activity” value is listed as “A (GI50 < 50 nM)”.
In the case of `C=CC(=O)Nc1cc(Nc2cc(N3OCC[C@@H]3c3ccccc3)ncn2)c(OC)cc1N1CCN(C2CCN(C)CC2)CC1` [Example 10], the GI50 (in assay [1]; in [2]; on Ba/F3 cell EGFR L858R; in assay [3]; in assay [4]; in assay [5]) was less than 0.05 µM throughout. In addition, the GI50 in assay [6] is less than 0.05 µM; in assay [7], less than 0.05 µM; in assay [8], less than 0.05 µM; in the assay on Ba/F3 cell naive, not below 5 µM; with PC9GR it was 10 nM; with H1975 it was 13 nM. Besides, the GI50 with PC9 is 14 nM; in assay [9], more than 15000 nM. For the same compound, the “Ba/F3 (NPH) Activity” value in [3] is recorded as “A (GI50 < 50 nM)”.
`C=CC(=O)Nc1cc(Nc2cc(N3OCC[C@@H]3c3ccccc3)ncn2)c(OC)cc1N1CCC(N2CCN(C)CC2)CC1` [Example 9]: the concentration for 50% growth inhibition (GI50) (in [1]; in assay [2]; at Ba/F3 cell EGFR L858R; in assay [3]; in assay [4]; in assay [5]) was less than 0.05 µM in each case. Also, the GI50 is less than 0.05 µM in [6]; less than 0.05 µM in assay [7]; less than 0.05 µM in assay [8]; not below 5 µM in the assay with Ba/F3 cell naive; 4 nM in the assay on PC9GR; 6 nM in the assay on H1975. Also, the values for the 50% growth inhibitory concentration (GI50) (in the assay on PC9; in assay [9]) were 1 nM and more than 15000 nM, respectively. Besides, the “Ba/F3 (NPH) Activity” value in assay [3] is listed as “A (GI50 < 50 nM)”. In addition, the “% inhibition of scanMAX Kinase profiling” value in [10] (EGFR(E746-A750del)) was 100%; in assay [10] (EGFR(G719C)), 100%; in assay [10] (EGFR(G719S)) it was 100%; in [10] (EGFR(L747-E749del, A750P)) it was 100%; in [10] (EGFR(L747-T751del.Sins)), 100%; in assay [10] (EGFR(L858R)), 100%. For the same compound, the “% inhibition of scanMAX Kinase profiling” value in assay [10] (EGFR(L858R.T790M)) is given as 96%; in assay [10] (EGFR(L861q)) it was 100%; in assay [10] (EGFR(S752-I759del)), 100%; in [10] (EGFR(T790M)) it was 99%; in assay [10] (ERBB2), 100%; in assay [10] (ERBB4), 100%. In addition, in [10], the “suppression activity” value was “high suppression activity”.
As to `C=CC(=O)Nc1cc(Nc2cc(N3OCC[C@@H]3c3ccccc3)ncn2)c(OC)cc1N1CCN(C)CC1` [Example 6, N-(4-methoxy-2-(4-methylpiperazine-1-yl)-5-((6-((R)-3-phenylisoxazolidine-2-yl)pyrimidine-4-yl)amino)phenyl) acrylamide], the concentration for 50% growth inhibition (GI50) (in assay [1]; in assay [2]; at Ba/F3 cell EGFR L858R; in [3]; in assay [4]; in [5]) was less than 0.05 µM throughout. Further, the concentration for 50% growth inhibition (GI50) is less than 0.05 µM in assay [6]; less than 0.05 µM in [7]; less than 0.05 µM in assay [8]; not below 5 µM with Ba/F3 cell naive; 32 nM with PC9GR; 60 nM in the assay with H1975. The GI50 is 1 nM in the assay with PC9 and more than 15000 nM in [9]. In addition, in assay [3], the “Ba/F3 (NPH) Activity” value was “A (GI50 < 50 nM)”. Moreover, the “% inhibition of scanMAX Kinase profiling” value is reported as 100% in [10] (EGFR(E746-A750del)); 100% in assay [10] (EGFR(G719C)); 100% in [10] (EGFR(G719S)); 100% in assay [10] (EGFR(L747-E749del, A750P)); 100% in [10] (EGFR(L747-T751del.Sins)); 100% in assay [10] (EGFR(L858R)). The “% inhibition of scanMAX Kinase profiling” value in assay [10] (EGFR(L858R.T790M)) is recorded as 85%; in assay [10] (EGFR(L861q)), 100%; in assay [10] (EGFR(S752-I759del)), 96%; in assay [10] (EGFR(T790M)), 100%; in assay [10] (ERBB2), 100%; in [10] (ERBB4), 100%. In addition, in assay [10], the “suppression activity” value is reported as “high suppression activity”.
